Measured values as given in the supplement of paper PMC7840683.
Counter-ions that a name gives are not always drawn. ± gives the standard deviation of the averaged measurements.

System: HepaRG
Assay: LDH release cytotoxicity, % of total lysis control; higher = more cytotoxic
Conditions: 48 h
Method in brief: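 HepaRG cells from a single lot were plated on collagen I-coated 96-well plates and treated in duplicate for 48 h with eight-point half-log series of test chemicals, starting at 100 µM, in serum-free induction medium containing 0.5% DMSO. Total lysis wells were given 0.1% Triton X. LDH released into 50 µL of spent medium was measured as resorufin fluorescence with CytoTox-ONE on a Tecan Safire. Percent cytotoxicity was normalized to on-plate vehicle and total lysis controls and then averaged across duplicates.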

`NC(=O)O` [Ammonium carbamate] showed an LDH release cytotoxicity (0.031623 µM) of -0.98 ± 0.56%, an LDH release cytotoxicity (0.1 µM) of -2.14 ± 1.1% and an LDH release cytotoxicity (0.316228 µM) of -3.38 ± 0.37%. It also gave an LDH release cytotoxicity (1 µM) of -2.11 ± 1.4%, an LDH release cytotoxicity (3.16228 µM) of -2.31 ± 0.54% and an LDH release cytotoxicity (10 µM) of -1.92 ± 0.74%. For the same compound, the LDH release cytotoxicity (31.6228 µM) was -0.516 ± 0.34% and the LDH release cytotoxicity (100 µM) was 0.311 ± 0.094%.
In the case of `O=C(O)C(F)(F)C(F)(F)C(F)(F)C(F)(F)C(F)(F)C(F)(F)C(F)(F)F` [Ammonium perfluorooctanoate], the LDH release cytotoxicity (0.03162 µM) is reported as -2.46 ± 0.051%, the LDH release cytotoxicity (0.1 µM) is reported as -2 ± 0.26% and the LDH release cytotoxicity (0.3162278 µM) is reported as -1.7 ± 0.71%. For the same compound, the LDH release cytotoxicity (1 µM) was -2.4 ± 0.45%, the LDH release cytotoxicity (3.16228 µM) was -1.55 ± 0.62% and the LDH release cytotoxicity (10 µM) was -1.1 ± 0.38%. It also gave an LDH release cytotoxicity (31.6228 µM) of -0.665 ± 0.52% and an LDH release cytotoxicity (100 µM) of 5.278 ± 0.027%.
In the case of `Clc1nc(Cl)nc(Nc2ccccc2Cl)n1` [Anilazine], the LDH release cytotoxicity (0.03162 µM) is reported as 0.501 ± 1.1%, the LDH release cytotoxicity (0.1 µM) is reported as 0.704 ± 0.18% and the LDH release cytotoxicity (0.3162278 µM) is reported as 0.988 ± 0.25%. For the same compound, the LDH release cytotoxicity (1 µM) was 0.786 ± 0.59%, the LDH release cytotoxicity (3.16228 µM) was 0.633 ± 0.28% and the LDH release cytotoxicity (10 µM) was 0.855 ± 0.55%. For the same compound, the LDH release cytotoxicity (31.6228 µM) was 0.799 ± 0.19% and the LDH release cytotoxicity (100 µM) was 0.712 ± 0.08%.
Work on `c1ccc2cc3ccccc3cc2c1` [Anthracene] yielded an LDH release cytotoxicity (0.031623 µM) of -2.31 ± 1.3%, an LDH release cytotoxicity (0.1 µM) of -2.92 ± 1.7% and an LDH release cytotoxicity (0.316228 µM) of -3.34 ± 0.24%. It also gave an LDH release cytotoxicity (1 µM) of -2.01 ± 1.3%, an LDH release cytotoxicity (3.16228 µM) of -2.51 ± 0.11% and an LDH release cytotoxicity (10 µM) of -2.69%. It also gave an LDH release cytotoxicity (31.6228 µM) of -1.53 ± 1.4% and an LDH release cytotoxicity (100 µM) of 2.42 ± 3.7%.
`O=C1c2c(O)cccc2Cc2cccc(O)c21` [Anthralin] was tested, and the LDH release cytotoxicity (0.03162 µM) was -2.38 ± 0.42%, the LDH release cytotoxicity (0.1 µM) was -0.784 ± 0.21% and the LDH release cytotoxicity (0.3162278 µM) was -1.25 ± 0.88%. The LDH release cytotoxicity (1 µM) was -0.891 ± 0.4%, the LDH release cytotoxicity (3.16228 µM) was -0.148 ± 1.6% and the LDH release cytotoxicity (10 µM) was -1.12 ± 0.49%. For the same compound, the LDH release cytotoxicity (31.6228 µM) was -0.933 ± 0.26% and the LDH release cytotoxicity (100 µM) was -0.256 ± 0.28%.
With `CCCCN1C(=O)C(C(O)C2CCCCC2)NC(=O)C12CCN(Cc1ccc(Oc3ccc(C(=O)O)cc3)cc1)CC2` (configuration not stated) [Aplaviroc hydrochloride] the LDH release cytotoxicity (0.03162 µM) was -1.85 ± 0.7%, the LDH release cytotoxicity (0.1 µM) was -1.71 ± 0.38% and the LDH release cytotoxicity (0.3162278 µM) was -3.23 ± 0.59%. It also gave an LDH release cytotoxicity (1 µM) of -2.439 ± 0.0083%, an LDH release cytotoxicity (3.16228 µM) of -3.02 ± 0.42% and an LDH release cytotoxicity (10 µM) of 0.0163 ± 0.13%. The LDH release cytotoxicity (31.6228 µM) was 7.4 ± 0.52% and the LDH release cytotoxicity (100 µM) was 27.4 ± 2.6%.
For `CC(=O)Oc1ccccc1C(=O)O` [Aspirin], the LDH release cytotoxicity (0.03162 µM) was -1.2 ± 0.093%, the LDH release cytotoxicity (0.1 µM) was -0.322 ± 0.2% and the LDH release cytotoxicity (0.3162278 µM) was 0.562 ± 0.26%. The LDH release cytotoxicity (1 µM) was -0.207 ± 0.53%, the LDH release cytotoxicity (3.16228 µM) was -0.296 ± 0.42% and the LDH release cytotoxicity (10 µM) was -0.207 ± 0.33%. It also gave an LDH release cytotoxicity (31.6228 µM) of 0.489 ± 0.23% and an LDH release cytotoxicity (100 µM) of 2.14 ± 0.33%.
For `COC(=O)NS(=O)(=O)c1ccc(N)cc1` [Asulam], the LDH release cytotoxicity (0.03162 µM) was -0.269 ± 0.97%, the LDH release cytotoxicity (0.1 µM) was -1.42 ± 0.1% and the LDH release cytotoxicity (0.3162278 µM) was -0.821 ± 0.14%. For the same compound, the LDH release cytotoxicity (1 µM) was -0.262 ± 0.22%, the LDH release cytotoxicity (3.16228 µM) was -1.05 ± 0.18% and the LDH release cytotoxicity (10 µM) was -0.725 ± 0.87%. It also gave an LDH release cytotoxicity (31.6228 µM) of -0.233 ± 0.19% and an LDH release cytotoxicity (100 µM) of 0.635 ± 1%.
Work on `CCNc1nc(Cl)nc(NC(C)C)n1` [Atrazine] yielded an LDH release cytotoxicity (0.03162 µM) of -1.43 ± 0.65%, an LDH release cytotoxicity (0.1 µM) of -1.36 ± 0.23% and an LDH release cytotoxicity (0.3162278 µM) of -1.63 ± 1.4%. It also gave an LDH release cytotoxicity (1 µM) of -2.15 ± 1.4%, an LDH release cytotoxicity (3.16228 µM) of -1.57 ± 0.28% and an LDH release cytotoxicity (10 µM) of -1.86 ± 1.1%. It also gave an LDH release cytotoxicity (31.6228 µM) of -1.38 ± 0.22% and an LDH release cytotoxicity (100 µM) of -0.59 ± 0.41%.
`COP(=O)(OC)SCn1c(=O)oc2cc(Cl)cnc21` [Azamethiphos] was tested, and the LDH release cytotoxicity (0.03162 µM) was -1.96 ± 0.53%, the LDH release cytotoxicity (0.1 µM) was -2.24 ± 0.48% and the LDH release cytotoxicity (0.3162278 µM) was -2.14 ± 0.47%. The LDH release cytotoxicity (1 µM) was -1.66 ± 0.097%, the LDH release cytotoxicity (3.16228 µM) was -2.14 ± 0.29% and the LDH release cytotoxicity (10 µM) was -1.74 ± 0.23%. For the same compound, the LDH release cytotoxicity (31.6228 µM) was 1.89 ± 0.59% and the LDH release cytotoxicity (100 µM) was 22.6 ± 3.6%.
`Cn1cnc([N+](=O)[O-])c1Sc1ncnc2nc[nH]c12` [Azathioprine] showed an LDH release cytotoxicity (0.0314647 µM) of -0.881 ± 1.4%, an LDH release cytotoxicity (0.0995 µM) of -1.48 ± 0.6% and an LDH release cytotoxicity (0.3146466 µM) of -1.64 ± 0.77%. The LDH release cytotoxicity (0.995 µM) was -0.793 ± 1.6%, the LDH release cytotoxicity (3.14647 µM) was 1.06 ± 0.75% and the LDH release cytotoxicity (9.95 µM) was 4.17 ± 1.2%. It also gave an LDH release cytotoxicity (31.4647 µM) of 6.78 ± 0.16% and an LDH release cytotoxicity (99.5 µM) of 8.21 ± 1.2%.
`COP(=S)(OC)SCn1nnc2ccccc2c1=O` [Azinphos-methyl] gave an LDH release cytotoxicity (0.03162 µM) of -0.213 ± 1.2%, an LDH release cytotoxicity (0.1 µM) of -0.757 ± 0.34% and an LDH release cytotoxicity (0.3162278 µM) of -1.67 ± 0.55%. For the same compound, the LDH release cytotoxicity (1 µM) was -2.01 ± 0.72%, the LDH release cytotoxicity (3.16228 µM) was -0.975 ± 0.6% and the LDH release cytotoxicity (10 µM) was 0.0858 ± 0.12%. It also gave an LDH release cytotoxicity (31.6228 µM) of -0.844 ± 0.45% and an LDH release cytotoxicity (100 µM) of 0.533 ± 0.78%.
Work on `c1ccc(N=Nc2ccccc2)cc1` [Azobenzene] yielded an LDH release cytotoxicity (0.03162 µM) of -1.57 ± 0.37%, an LDH release cytotoxicity (0.1 µM) of -1.67 ± 0.46% and an LDH release cytotoxicity (0.3162278 µM) of -0.316 ± 1.5%. For the same compound, the LDH release cytotoxicity (1 µM) was -2 ± 0.14%, the LDH release cytotoxicity (3.16228 µM) was -1.63 ± 0.18% and the LDH release cytotoxicity (10 µM) was 0.0427 ± 0.32%. It also gave an LDH release cytotoxicity (31.6228 µM) of 1.14 ± 0.012% and an LDH release cytotoxicity (100 µM) of 3.66 ± 1.6%.
With `COC=C(C(=O)OC)c1ccccc1Oc1cc(Oc2ccccc2C#N)ncn1` [Azoxystrobin] the LDH release cytotoxicity (0.03162 µM) was -1.32 ± 0.027%, the LDH release cytotoxicity (0.1 µM) was -1.84 ± 0.078% and the LDH release cytotoxicity (0.3162278 µM) was -2.03 ± 0.21%. For the same compound, the LDH release cytotoxicity (1 µM) was -2.35 ± 1.2%, the LDH release cytotoxicity (3.16228 µM) was -2.2 ± 0.56% and the LDH release cytotoxicity (10 µM) was -1.39 ± 0.089%. It also gave an LDH release cytotoxicity (31.6228 µM) of -1.83 ± 0.58% and an LDH release cytotoxicity (100 µM) of 18.63 ± 0.13%.
Compound `CNC(=O)Oc1cccc2c1OC(C)(C)O2` [Bendiocarb] has an LDH release cytotoxicity (0.031623 µM) of -1.26 ± 1.2%, an LDH release cytotoxicity (0.1 µM) of -1.64 ± 2.2% and an LDH release cytotoxicity (0.316228 µM) of -0.794 ± 0.9%. The LDH release cytotoxicity (1 µM) was -1.67 ± 1.8%, the LDH release cytotoxicity (3.16228 µM) was -1.78 ± 0.89% and the LDH release cytotoxicity (10 µM) was -2.76 ± 2.2%. For the same compound, the LDH release cytotoxicity (31.6228 µM) was -2.289 ± 0.017% and the LDH release cytotoxicity (100 µM) was -2.6 ± 0.88%.
`CCCCN(CC)c1c([N+](=O)[O-])cc(C(F)(F)F)cc1[N+](=O)[O-]` [Benfluralin] was tested, and the LDH release cytotoxicity (0.031623 µM) was -0.0474 ± 0.18%, the LDH release cytotoxicity (0.1 µM) was -1.73 ± 1.2% and the LDH release cytotoxicity (0.316228 µM) was -1.78 ± 0.15%. It also gave an LDH release cytotoxicity (1 µM) of -2.54 ± 0.81%, an LDH release cytotoxicity (3.16228 µM) of -2.56 ± 0.43% and an LDH release cytotoxicity (10 µM) of -1.12 ± 0.72%. The LDH release cytotoxicity (31.6228 µM) was -1.14 ± 0.56% and the LDH release cytotoxicity (100 µM) was -0.374 ± 0.11%.
For `O=C(Nc1ccccc1)c1ccccc1I` [Benodanil], the LDH release cytotoxicity (0.03162 µM) was -1.25 ± 0.85%, the LDH release cytotoxicity (0.1 µM) was -1.19 ± 1.3% and the LDH release cytotoxicity (0.3162278 µM) was -1.59 ± 0.61%. The LDH release cytotoxicity (1 µM) was -2.02 ± 0.61%, the LDH release cytotoxicity (3.16228 µM) was -0.274 ± 0.0083% and the LDH release cytotoxicity (10 µM) was 1.86 ± 0.57%. For the same compound, the LDH release cytotoxicity (31.6228 µM) was 5.86 ± 1.2% and the LDH release cytotoxicity (100 µM) was 12.4 ± 0.34%.
For `CCCCNC(=O)n1c(NC(=O)OC)nc2ccccc21` [Benomyl], the LDH release cytotoxicity (0.03162 µM) was -1.36 ± 0.32%, the LDH release cytotoxicity (0.1 µM) was -0.152 ± 0.59% and the LDH release cytotoxicity (0.3162278 µM) was -0.651 ± 0.35%. It also gave an LDH release cytotoxicity (1 µM) of -2.31 ± 0.2%, an LDH release cytotoxicity (3.16228 µM) of -1.18 ± 0.56% and an LDH release cytotoxicity (10 µM) of 8.93 ± 2.2%. The LDH release cytotoxicity (31.6228 µM) was 8.73 ± 0.26% and the LDH release cytotoxicity (100 µM) was 9.79 ± 0.95%.
Work on `CC(C)N1C(=O)c2ccccc2NS1(=O)=O` [Bentazone] yielded an LDH release cytotoxicity (0.03162 µM) of -0.772 ± 0.46%, an LDH release cytotoxicity (0.1 µM) of -0.547 ± 0.14% and an LDH release cytotoxicity (0.3162278 µM) of 0.0696 ± 0.91%. The LDH release cytotoxicity (1 µM) was -0.283 ± 0.7%, the LDH release cytotoxicity (3.16228 µM) was -0.149 ± 0.18% and the LDH release cytotoxicity (10 µM) was 0.303 ± 0.12%. It also gave an LDH release cytotoxicity (31.6228 µM) of -0.174 ± 0.19% and an LDH release cytotoxicity (100 µM) of 2.45 ± 1.1%.
